According to publication PMC10408569, “Recruitment of hexahydroquinoline as anticancer scaffold targeting inhibition of wild and mutants EGFR (EGFR^WT, EGFR^T790M, and EGFR^L858R)” (Journal of Enzyme Inhibition and Medicinal Chemistry, 2023):

Tests used:
HOP-62 = assay: NCI-60 anticancer screening (SRB); assay type: cell-based; conditions: Homo sapiens; HOP-62, NSC lung cancer; one dose 10 μM; read-out: Growth Inhibition Percentage (GI %)
TK-10 = assay: NCI-60 anticancer screening (SRB); assay type: cell-based; conditions: Homo sapiens; TK-10, renal cancer; one dose 10 μM; read-out: Growth Inhibition Percentage (GI %)
UACC-62 = assay: NCI-60 anticancer screening (SRB); assay type: cell-based; conditions: Homo sapiens; UACC-62, melanoma; one dose 10 μM; read-out: Growth Inhibition Percentage (GI %)
SN 12C = assay: NCI-60 anticancer screening (SRB); assay type: cell-based; conditions: Homo sapiens, SN12C; SN 12C, renal cancer; one dose 10 μM; read-out: Growth Inhibition Percentage (GI %)
UO-31 = assay: NCI-60 anticancer screening (SRB); assay type: cell-based; conditions: Homo sapiens; UO-31, renal cancer; one dose 10 μM; read-out: Growth Inhibition Percentage (GI %)
NCI/ADR-RES = assay: NCI-60 anticancer screening (SRB); assay type: cell-based; conditions: Homo sapiens, ovarian cancer, one dose 10 μM, read-out: Growth Inhibition Percentage (GI %)
MCF7 = assay: NCI-60 anticancer screening (SRB); assay type: cell-based; conditions: Homo sapiens; MCF7, breast cancer; one dose 10 μM; read-out: Growth Inhibition Percentage (GI %)
NCI-H522 = assay: NCI-60 anticancer screening (SRB); assay type: cell-based; conditions: Homo sapiens; NCI-H522, NSC lung cancer; one dose 10 μM; read-out: Growth Inhibition Percentage (GI %)
RXF 393 = assay: NCI-60 anticancer screening (SRB); assay type: cell-based; conditions: Homo sapiens; RXF 393, renal cancer; one dose 10 μM; read-out: Growth Inhibition Percentage (GI %)
MOLT-4 = assay: NCI-60 anticancer screening (SRB); assay type: cell-based; conditions: Homo sapiens; MOLT-4, leukemia; one dose 10 μM; read-out: Growth Inhibition Percentage (GI %)
SW-620 = assay: NCI-60 anticancer screening (SRB); assay type: cell-based; conditions: Homo sapiens; SW-620, colon cancer; one dose 10 μM; read-out: Growth Inhibition Percentage (GI %)
NCI 60 cancer cell lines = assay: NCI-60 anticancer screening (SRB), whole panel; assay type: cell-based, human; conditions: mean across the NCI-60 panel; one dose 10 μM
SK-MEL-5 = assay: NCI-60 anticancer screening (SRB); assay type: cell-based; conditions: Homo sapiens; SK-MEL-5, melanoma; one dose 10 μM; read-out: Growth Inhibition Percentage (GI %)
SK-MEL-2 = assay: NCI-60 anticancer screening (SRB); assay type: cell-based; conditions: Homo sapiens; SK-MEL-2, melanoma; one dose 10 μM; read-out: Growth Inhibition Percentage (GI %)
HCC-2998 = assay: NCI-60 anticancer screening (SRB); assay type: cell-based; conditions: Homo sapiens; HCC-2998, colon cancer; one dose 10 μM; read-out: Growth Inhibition Percentage (GI %)
786-0 = assay: NCI-60 anticancer screening (SRB); assay type: cell-based; conditions: Homo sapiens; 786-0, renal cancer; one dose 10 μM; read-out: Growth Inhibition Percentage (GI %)
A498 = assay: NCI-60 anticancer screening (SRB); assay type: cell-based; conditions: Homo sapiens; A498, renal cancer; one dose 10 μM; read-out: Growth Inhibition Percentage (GI %)
NCI-H322M = assay: NCI-60 anticancer screening (SRB); assay type: cell-based; conditions: Homo sapiens, NSC lung cancer, one dose 10 μM, read-out: Growth Inhibition Percentage (GI %)
COLO 205 = assay: NCI-60 anticancer screening (SRB); assay type: cell-based; conditions: Homo sapiens; COLO 205, colon cancer; one dose 10 μM; read-out: Growth Inhibition Percentage (GI %)
OVCAR-4 = assay: NCI-60 anticancer screening (SRB); assay type: cell-based; conditions: Homo sapiens; OVCAR-4, ovarian cancer; one dose 10 μM; read-out: Growth Inhibition Percentage (GI %)
BT-549 = assay: NCI-60 anticancer screening (SRB); assay type: cell-based; conditions: Homo sapiens; BT-549, breast cancer; one dose 10 μM; read-out: Growth Inhibition Percentage (GI %)
M14 = assay: NCI-60 anticancer screening (SRB); assay type: cell-based; conditions: Homo sapiens; M14, melanoma; one dose 10 μM; read-out: Growth Inhibition Percentage (GI %)
T-47D = assay: NCI-60 anticancer screening (SRB); assay type: cell-based; conditions: Homo sapiens, T47D, breast cancer, one dose 10 μM, read-out: Growth Inhibition Percentage (GI %)
HL-60(TB) = assay: NCI-60 anticancer screening (SRB); assay type: cell-based; conditions: Homo sapiens, leukemia, one dose 10 μM, read-out: Growth Inhibition Percentage (GI %)
KM 12 = assay: NCI-60 anticancer screening (SRB); assay type: cell-based; conditions: Homo sapiens, KM12; KM 12, colon cancer; one dose 10 μM; read-out: Growth Inhibition Percentage (GI %)
CAKI-1 = assay: NCI-60 anticancer screening (SRB); assay type: cell-based; conditions: Homo sapiens; CAKI-1, renal cancer; one dose 10 μM; read-out: Growth Inhibition Percentage (GI %)
LOX IMVI = assay: NCI-60 anticancer screening (SRB); assay type: cell-based; conditions: Homo sapiens, melanoma, one dose 10 μM, read-out: Growth Inhibition Percentage (GI %)
MDA-MB-231 = assay: NCI-60 anticancer screening (SRB); assay type: cell-based; conditions: Homo sapiens; MDA-MB-231, breast cancer; one dose 10 μM; read-out: Growth Inhibition Percentage (GI %)
HS 578T = assay: NCI-60 anticancer screening (SRB); assay type: cell-based; conditions: Homo sapiens; HS 578T, breast cancer; one dose 10 μM; read-out: Growth Inhibition Percentage (GI %)
NCI-H460 = assay: NCI-60 anticancer screening (SRB); assay type: cell-based; conditions: Homo sapiens; NCI-H460, NSC lung cancer; one dose 10 μM; read-out: Growth Inhibition Percentage (GI %)
HT29 = assay: NCI-60 anticancer screening (SRB); assay type: cell-based; conditions: Homo sapiens, HT-29; HT29, colon cancer; one dose 10 μM; read-out: Growth Inhibition Percentage (GI %)
OVCAR-3 = assay: NCI-60 anticancer screening (SRB); assay type: cell-based; conditions: Homo sapiens; OVCAR-3, ovarian cancer; one dose 10 μM; read-out: Growth Inhibition Percentage (GI %)

Row | Compound | inhibition at 10 µM (HOP-62) [%] | inhibition at 10 µM (TK-10) [%] | inhibition at 10 µM (UACC-62) [%] | inhibition at 10 µM (SN 12C) [%] | melting point [°C] | inhibition at 10 µM (UO-31) [%] | inhibition at 10 µM (NCI/ADR-RES) [%] | inhibition at 10 µM (MCF7) [%] | inhibition at 10 µM (NCI-H522) [%] | inhibition at 10 µM (RXF 393) [%] | inhibition at 10 µM (MOLT-4) [%] | inhibition at 10 µM (SW-620) [%] | GI % mean (NCI 60 cancer cell lines) | inhibition at 10 µM (SK-MEL-5) [%] | inhibition at 10 µM (SK-MEL-2) [%] | inhibition at 10 µM (HCC-2998) [%] | inhibition at 10 µM (786-0) [%] | inhibition at 10 µM (A498) [%] | inhibition at 10 µM (NCI-H322M) [%] | inhibition at 10 µM (COLO 205) [%] | other results
1 | CCOC(=O)C1=C(N)N(c2ccc(Cl)cc2)C2=C(C(=O)CC(C)(C)C2)C1c1cccnc1 (racemic) [12f, (±)-Ethyl 2-amino-1–(4-chlorophenyl)-7,7-dimethyl-5-oxo-4-(pyridin-3-yl)-1,4,5,6,7,8-hexahydroquinoline-3-carboxylate] | < 10 | < 10 | < 10 | < 10 | 261 to 263 | 21 | 11 | < 10 | < 10 | < 10 | < 10 | < 10 | - ((-) = GI % mean less than 10) | < 10 | < 10 | < 10 | < 10 | < 10 | < 10 | < 10 | inhibition at 10 µM (OVCAR-4): 13%; inhibition at 10 µM (BT-549): < 10%; inhibition at 10 µM (M14): < 10%; inhibition at 10 µM (T-47D): 25%; inhibition at 10 µM (HL-60(TB)): < 10%; inhibition at 10 µM (KM 12): < 10%; inhibition at 10 µM (CAKI-1): < 10%; inhibition at 10 µM (LOX IMVI): 12%; inhibition at 10 µM (MDA-MB-231): < 10%; inhibition at 10 µM (HS 578T): 16%; inhibition at 10 µM (NCI-H460): < 10%; inhibition at 10 µM (HT29): < 10%; inhibition at 10 µM (OVCAR-3): < 10%
2 | CCOC(=O)C1=C(N)N(c2ccc(Cl)cc2)C2=C(C(=O)CC(C)(C)C2)C1c1ccccc1OC (racemic) [6i, (±)-Ethyl 2-amino-1–(4-chlorophenyl)-4–(2-methoxyphenyl)-7,7-dimethyl-5-oxo-1,4,5,6,7,8-hexahydroquinoline-3-carboxylate] | < 10 | < 10 | 44 | 12 | 228 to 230 | 43 | 40 | 65 | 43 | < 10 | 89 | 23 | 36% | 29 | 15 | 38 | < 10 | < 10 | 15 | 50 | inhibition at 10 µM (OVCAR-4): 58%; inhibition at 10 µM (BT-549): 20%; inhibition at 10 µM (M14): 49%; inhibition at 10 µM (T-47D): 40%; inhibition at 10 µM (HL-60(TB)): 69%; inhibition at 10 µM (KM 12): 54%; inhibition at 10 µM (CAKI-1): 12%; inhibition at 10 µM (LOX IMVI): 37%; inhibition at 10 µM (MDA-MB-231): 31%; inhibition at 10 µM (HS 578T): 32%; inhibition at 10 µM (NCI-H460): 51%; inhibition at 10 µM (HT29): 44%; inhibition at 10 µM (OVCAR-3): 19%
3 | CCOC(=O)C1=C(N)N(c2ccccc2)C2=C(C(=O)CC(C)(C)C2)C1c1ccc(Cl)cc1 (racemic) [8c, (±)-Ethyl 2-amino-4–(4-chlorophenyl)-7,7-dimethyl-5-oxo-1-phenyl-1,4,5,6,7,8-hexahydroquinoline-3-carboxylate] | 19 | 20 | 78 | 46 | 215 to 217 | 71 | 74 | 83 | 62 | < 10 | 99 | 72 | 63% | 72 | 70 | 57 | 33 | 33 | 35 | 118 | inhibition at 10 µM (OVCAR-4): 71%; inhibition at 10 µM (BT-549): 57%; inhibition at 10 µM (M14): 72%; inhibition at 10 µM (T-47D): 70%; inhibition at 10 µM (HL-60(TB)): 94%; inhibition at 10 µM (KM 12): 82%; inhibition at 10 µM (CAKI-1): 50%; inhibition at 10 µM (LOX IMVI): 59%; inhibition at 10 µM (MDA-MB-231): 47%; inhibition at 10 µM (HS 578T): 28%; inhibition at 10 µM (NCI-H460): 87%; inhibition at 10 µM (HT29): 65%; inhibition at 10 µM (OVCAR-3): 48%
4 | CCOC(=O)C1=C(N)N(c2ccc(C)cc2)C2=C(C(=O)CC(C)(C)C2)C1c1ccc(OC)cc1 (racemic) [8g, (±)-Ethyl 2-amino-4–(4-methoxyphenyl)-7,7-dimethyl-1–(4-methylphenyl)-5-oxo-1,4,5,6,7,8-hexahydroquinoline-3-carboxylate] | < 10 | < 10 | < 10 | < 10 | 181 to 183 | < 10 | < 10 | < 10 | < 10 | < 10 | < 10 | < 10 | - ((-) = GI % mean less than 10) | < 10 | < 10 | < 10 | < 10 | < 10 | < 10 | < 10 | inhibition at 10 µM (OVCAR-4): < 10%; inhibition at 10 µM (BT-549): < 10%; inhibition at 10 µM (M14): < 10%; inhibition at 10 µM (T-47D): < 10%; inhibition at 10 µM (HL-60(TB)): < 10%; inhibition at 10 µM (KM 12): < 10%; inhibition at 10 µM (CAKI-1): < 10%; inhibition at 10 µM (LOX IMVI): < 10%; inhibition at 10 µM (MDA-MB-231): < 10%; inhibition at 10 µM (HS 578T): < 10%; inhibition at 10 µM (NCI-H460): < 10%; inhibition at 10 µM (HT29): < 10%; inhibition at 10 µM (OVCAR-3): < 10%
